Experimental data: publication PMC11239005, “Preclinical studies of RA475, a guanidine-substituted spirocyclic candidate RPN13/ADRM1 inhibitor for treatment of ovarian cancer” (PLOS ONE, 2024)

How the values were obtained:
4UbFL in 4T1 cells = test: 4UbFL reporter assay, 4T1; format: cell-based; conditions: 4T1 stably expressing 4UbFL, 4 h
Description: Sub-confluent cultures of cells were transfected with 4UbFL plasmid using TransIT 2020 reagent (Mirus Bio). Cells were seeded at 10,000 cells/well in 96-well plates 48 h post transfection, and incubated with compounds or vehicle (DMSO) at the doses and for the times indicated. Luciferase activity in cell lysate was determined with a luciferase assay kit (Promega) according to the manufacturer’s instructions. Bioluminescence was measured using a Glomax Multidetection system (Promega).
Fig 3 Impact of RA475 on proteasome function. […] Actin was used as loading control. […] After a 4 h incubation, the cells were lysed and the luciferase activity in each cell lysate was determined with a luciferase assay kit (Promega) according to the manufacturer’s instructions. Bioluminescence was measured by using a luminometer (Glomax Multidetection system, Promega) E) A patch was shaved of hair on one leg of CD-1 mice, and 10 μg 4UbFL plasmid in 20 μL of PBS was injected into the quadriceps femoralis muscle followed immediately by injection of the 2 Needle Array to 5 mm depth encompassing the injection site and square wave electroporation (ElectroSquarePorator 833, BTX-2 Needle array 5mm gap, Harvard apparatus) delivered as eight pulses at 106V for 20 ms with 200 ms intervals. […] Equally sized areas were analyzed using Living Image 2.20 software. […]

[1] = Stability in human plasma; format: in vitro ADME; conditions: 10 μM, 1 h at 37°C
Description: (§1) Human and mouse liver microsomes and NADPH regenerating system solutions were purchased from Corning Life Sciences (Tewsbury, MA). Human and mouse K2EDTA-treated plasma was purchased from BioIVT (Westbury, NY). Metabolic studies in liver microsomes (0.125 mg/mL) were conducted in 1x PBS (pH 7.4), NADPH-generating system, and 10 μM RA475 in a final volume of 250 μL. An incubation mixture with or without NADPH-generating system, as well as a neat solution prepared without microsomes and NADPH-generating system was used. RA475 was added at the same concentration level into human and mouse EDTA plasma. All reactions were initiated with the addition of RA475. Incubations were performed in glass tubes maintained at 37°C in a shaker bath. At 0, 30, and 60 min, 10 μL samples were withdrawn from the reaction mixture, and 0.5 mL of acetonitrile containing internal standard was added to each. Samples were vortex-mixed and subjected to centrifugation for 5 min at 1430 x g. A 10 μL aliquot of the supernatant was injected onto the LC-MS/MS instrument for qualitative analysis using a temperature-controlled autosampling device operating at 5°C (See Pharmacokinetic section).

[2] = Stability in mouse liver microsomes; format: in vitro ADME; conditions: with or without NADPH, over 1 h
Description: as §1

[3] = target: human serum albumin protein (Homo sapiens, UniProt P02768); test: Human serum albumin protein binding; format: in vitro ADME; conditions: 1 μM, dialysis 5 h
Description: The assay was performed in a multiple-use 96-well dialysis unit (HTD96b dialyzer). Each individual well unit consisted of 2 chambers separated by a vertically aligned dialysis membrane of predetermined pore size (MWCO 12–14 kDa). 120 μL of non-diluted plasma spiked with the compound (1 μM, final DMSO concentration 1%) was added to one chamber, and the same volume of PBS buffer pH 7.4 to the other chamber. The HTD96b dialyzer was covered with adhesive sealing film and incubated 5 h at 37°C while shaking at 100 rpm. For sample preparation, an aliquot of the contents of each chamber was mixed with the same volume of the blank opposite matrix. In order to define non-specific loss of the compound during this assay, a standard solution was created by mixing an aliquot of spiked plasma with blank buffer without dialysis. Two aliquots of the standard solution were incubated at 37°C, shaking at 100 rpm for 5 h (recovery samples). The other two aliquots were immediately diluted with acetonitrile and stored at 4°C until analysis (stability samples). All samples were diluted 5-fold with internal standard diluted in 100% methanol with subsequent plasma proteins sedimentation by centrifuging at 6000 rpm for 5 minutes. Supernatants were analyzed using LC-MS/MS. The percentage of plasma protein bound compound, recovery and stability were calculated using following equations. […]

[4] = 1 h; Up284 not in this paper's method, no reference at the place; cited from earlier work
[5] = design: method as in PMID 37315065; conditions: mice; cited from earlier work

human serum albumin protein, sequence (P02768 25-609): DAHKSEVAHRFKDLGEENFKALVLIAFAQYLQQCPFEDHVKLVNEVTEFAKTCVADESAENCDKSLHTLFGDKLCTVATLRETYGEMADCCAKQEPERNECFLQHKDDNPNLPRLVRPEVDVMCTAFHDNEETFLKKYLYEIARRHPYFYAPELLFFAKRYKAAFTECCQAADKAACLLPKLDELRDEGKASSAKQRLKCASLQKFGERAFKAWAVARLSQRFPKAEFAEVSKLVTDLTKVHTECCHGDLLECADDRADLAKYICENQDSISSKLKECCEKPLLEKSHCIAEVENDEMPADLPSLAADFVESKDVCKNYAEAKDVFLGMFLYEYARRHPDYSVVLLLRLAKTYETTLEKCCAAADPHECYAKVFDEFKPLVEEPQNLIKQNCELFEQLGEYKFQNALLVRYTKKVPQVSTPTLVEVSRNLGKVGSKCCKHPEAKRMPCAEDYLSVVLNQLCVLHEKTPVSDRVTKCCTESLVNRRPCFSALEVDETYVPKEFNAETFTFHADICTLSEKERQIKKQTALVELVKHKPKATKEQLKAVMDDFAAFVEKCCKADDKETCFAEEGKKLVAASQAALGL

SMILES | 4UbFL bioluminescence signal (4UbFL in 4T1 cells) | stability in plasma [1] | degradation in liver microsomes [2] [%] | binding to human serum albumin protein [3] [%] | present after 1 h in liver microsomes [4] [%] | IP bioavailability [5] [%] | oral bioavailability [5] [%]
Cl.Cl.N#Cc1ccc(/C=C2/C(=O)/C(=C/c3ccc(C#N)cc3)C23CCN(C(=N)N)CC3)cc1 [RA475, 1,3-bis((E)-4-cyanobenzylidene)-2-oxo-7-azaspiro[3.5]nonane-7-carboximidamide dihydrochloride] | dose dependent increases in bioluminescence signal | did not degrade | < 10 | 93.8 | – | – | –
N#Cc1ccc(/C=C2/C(=O)/C(=C/c3ccc(C#N)cc3)C23CCNCC3)cc1 [Up284, reference compound] | – | – | – | – | 52 | 87 | 23
